Assay: gradient 5% acetonitrile 3 min, to 50% in 2 min, to 85% in 15 min, held 3 min, 100 µL/min
Details: column: Zorbax Extend-C18 2.1 x 50 mm; eluents: water / acetonitrile, 0.1% formic acid
Method in brief: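 Pure standards were analyzed in mixtures of ~100 molecules using HPLC coupled to a quadrupole time-of-flight mass spectrometer, in both positive and negative ionization mode. Separation used a Zorbax Extend-C18 column (2.1 × 50 mm, 1.8 μm) at 100 μL/min, with water and acetonitrile each containing 0.1% formic acid. Dead and dwell volumes were 40 μL and 900 μL, and data were collected over 3 months. Retention time was read from computationally picked adduct peaks, each inspected manually.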

Row | Compound | RP-LC retention time
1 | CCN1CCC2(CC1)N=C(c1ccccc1)CC(c1cc(Cl)ccc1O)N2 (stereo not drawn) | 621 s
2 | Cc1nc(-c2ccccc2)cc2nn(CC(=O)NC3CCCC3)c(=O)n12 | 865 s
3 | CC(=O)N1CCC2(CC1)CC(=O)c1ccc(O)c(O)c1O2 | 585 s
4 | COc1ccccc1CNC(=O)Cn1nc2c(N3CCSCC3)nccn2c1=O | 767 s
5 | O=C(NCCc1csc(-c2ccc(Cl)cc2)n1)C(=O)Nc1ccc2c(c1)OCCO2 | 1030 s
6 | O=C(O)c1cc2cc(OCc3ccccc3)ccc2[nH]1 | 903 s
7 | COc1ccc(CNC(=O)C2(C)CCN(C(=O)NCc3ccco3)CC2)cc1 | 700 s
8 | CC(CCc1ccccc1)NC(=O)c1ccc2c(c1)CCCN2S(C)(=O)=O (stereo not drawn) | 935 s
9 | O=C(Nc1ccccc1)c1nnc(CCCC(=O)N2CCN(c3ccccn3)CC2)s1 | 638 s
10 | CCC(C(=O)Nc1c(-c2ccc(OC)cc2)nc2cc(C)ccn12)c1ccccc1 (stereo not drawn) | 713 s
11 | CCC(C(=O)N1CCC(c2cc3n(n2)CCCNC3=O)CC1)c1ccccc1 (stereo not drawn) | 694 s
12 | Cc1nnc2c(=O)n(CC(=O)N3CCN(c4ccccc4)CC3)c3cccnc3n12 | 682 s
13 | CCCCNC(=O)C1Cc2cc(S(=O)(=O)N3CCCCC3)ccc2N1C(C)=O (stereo not drawn) | 806 s
14 | O=C(CSc1cc(-c2nc(-c3ccccc3)no2)ccn1)N1CCCC1 | 941 s
15 | O=C(CSc1ncccn1)NCc1cc(-c2ccc(F)cc2)on1 | 700 s
16 | CCN1CCC(CCNC(=O)C2CCc3sc(C(=O)N4CCCC4)cc3C2)CC1 (stereo not drawn) | 582 s
17 | CC(=O)Nc1ccc(CC(=O)N2CCCC(c3nc(-c4ccc(NC(C)=O)cc4)no3)C2)cc1 (stereo not drawn) | 675 s
18 | COc1cccc(CN2CCn3c(nnc3[C@@H]3C[C@@H](O)CN3Cc3ccccc3)C2)c1 | 622 s
19 | Cc1cc(C)cc(S(=O)(=O)N2CCC(c3nc(C(=O)N(C)C)c(C)o3)CC2)c1 | 882 s
20 | CN1C(=O)CCc2cc(NS(=O)(=O)c3cccc(Cl)c3)ccc21 | 783 s
21 | COc1cc(NS(=O)(=O)c2cc(-c3cnn4c(C)cc(C)nc34)ccc2OC)cc(OC)c1 | 949 s
22 | O=C(NC1CCCC1)C1CCN(c2ncccc2-c2nc(-c3ccc(Cl)cc3)no2)CC1 | 1130 s

Row | Compound | RP-LC retention time
23 | COc1ccc2c(c1)c(CN1CCC(C(=O)NCc3ccccc3Cl)CC1)cn2C | 699 s
24 | CCCNC(=O)N(CC(=O)N1CCc2sccc2C1COc1ccccc1)CC1CCCO1 (stereo not drawn) | 911 s
25 | Cc1ccc2[nH]cc(CCN3CC(C(=O)N4CCOCC4)CC3=O)c2c1 (stereo not drawn) | 679 s
26 | Cc1ccc(-c2nc(-c3ccc4nnn(C)c4c3)no2)cc1C | 1170 s
27 | CC(C)NC(=O)c1ccc(OCC2CCCN(C(=O)c3ccccc3F)C2)cc1 (stereo not drawn) | 830 s
28 | C=CCNC(=O)c1ccc2c(c1)c(C)c(C)n2C | 828 s
29 | CCc1nnc2nc(N3CCN(C(=O)c4nccc5ccccc45)CC3)cc(C)n12 | 559 s
30 | CCn1c(C(=O)NCCCN2CCCC(C)C2)c(N2CCCC2=O)c2cc(F)ccc21 (stereo not drawn) | 660 s
31 | O=C(Nc1ccc(F)c(F)c1)c1cc2n(n1)CCCC2 | 887 s
32 | NC(=O)Nc1ccc(Nc2ccccc2)cc1 | 752 s
33 | COC(=O)C1=C(N)Oc2cc(C)n(CCN(C)C)c(=O)c2C1c1ccccc1Cl (stereo not drawn) | 624 s
34 | CCN1CCn2cc(S(=O)(=O)Nc3cc(F)ccc3C)cc2C1=O | 725 s
35 | CCOC(=O)CNC(=O)N1CCCC1c1ccccc1C (stereo not drawn) | 768 s
36 | O=C(Nc1ccc(Cl)cc1)C(=O)c1cn(CC(=O)N2CCOCC2)c2ccccc12 | 959 s
37 | O=C(NCC1(N2CCOCC2)CCOC1)Nc1ccccc1C(F)(F)F (stereo not drawn) | 596 s
38 | CCOc1ccc(Nc2ncccc2S(N)(=O)=O)cc1 | 773 s
39 | O=C(CN1C(=O)C(C(=O)N2CCCC2)Sc2ccccc21)N1CCN(c2ccccc2F)CC1 (stereo not drawn) | 859 s
40 | CC(C)n1nnc2cc(S(=O)(=O)N3CCCC(C(=O)N4CCN(c5ccccn5)CC4)C3)ccc21 (stereo not drawn) | 644 s
41 | O=C(O)c1nnn(-c2ccccc2F)c1-c1ccccn1 | 657 s
42 | CCCc1noc(-c2ccc(-n3ncc(C(=O)N4CCOCC4)c3C)nc2)n1 | 833 s
43 | COc1ccc(-c2noc(Cn3ccn(-c4cccc(Cl)c4)c(=O)c3=O)n2)cc1 | 866 s
44 | COc1ccc(CCc2nc(C3CC(=O)N(c4ccc(F)c(Cl)c4)C3)no2)cc1 (stereo not drawn) | 1040 s

Row | Compound | RP-LC retention time
45 | Cc1nnc(-c2ccc3ccn(CC(=O)N4CCN(C(=O)c5ccco5)CC4)c3c2)o1 | 674 s
46 | COc1ccccc1-n1ccn2cc(-c3ccc(F)cc3)nc2c1=O | 783 s
47 | CCc1noc(NC(C)=O)c1-c1ccc(OC)c(S(=O)(=O)NCc2ccc(OC)cc2)c1 | 758 s
48 | CC(C)COc1cc(=O)n2c(c1C(=O)NC1CCN(C)CC1)CCCCC2 | 571 s
49 | CCOCCCNC(=O)C1CCN(S(C)(=O)=O)c2cc(Cl)ccc2O1 (stereo not drawn) | 783 s
50 | O=C(Nc1cnn(-c2ncncc2N2CCCCC2)c1)c1ccc2c(c1)OCO2 | 702 s
51 | CC1CCN(C(=O)c2nnc(-c3ccc(S(=O)(=O)N4CCC(C)CC4)cc3)o2)CC1 | 1120 s
52 | CC1CCCCN1S(=O)(=O)c1cc(-c2nnc(C3CC3)o2)co1 (stereo not drawn) | 896 s
53 | O=C(Cc1scnc1-c1cccs1)N1CCN(c2ccccn2)CC1 | 596 s
54 | O=C(NCc1ccco1)c1ccc2ccnc(N3CCN(c4ccc(Cl)cc4)CC3)c2c1 | 858 s
55 | Cc1cccc(-c2c3c(=O)n(C)c(=O)n(C)c3c3n2CCOC3c2c(C)n(C)c(=O)n(C)c2=O)c1 (stereo not drawn) | 746 s
56 | COc1ccc(C2CC(=O)N(c3ccc(C)c(C)c3)C(=O)C2)cc1OC | 893 s
57 | Cc1cc(C(=O)N2c3ccccc3CC2c2nnc(C3CC3)o2)nn1C (stereo not drawn) | 786 s
58 | COc1cc(/C=C2\CCOC2=O)cc(OC)c1OC | 802 s
59 | O=C(C1CCN(c2nc3ccc(-c4cccc(F)c4)nc3s2)CC1)N1CCCCC1 | 1070 s
60 | O=C(Cn1cnc2ccccc21)N1CCC(COCc2ccccc2)CC1 | 608 s
61 | Cn1cc(-c2cc3n(n2)CCC(=O)N3CCCC(=O)N2CCOCC2)c2ccccc21 | 692 s
62 | CN1CCCc2cc(C(CNC(=O)C(=O)Nc3ccc4c(c3)OCO4)N3CCCCC3)ccc21 (stereo not drawn) | 718 s
63 | COc1cccc(-c2noc(C3CCCN3C(=O)Nc3ccc4c(c3)OCO4)n2)c1 (stereo not drawn) | 896 s
64 | COc1ccccc1-c1cc2c(=O)n(Cc3nc(-c4cccc(F)c4)no3)ccn2n1 | 1040 s
65 | Cc1ccccc1CNC(=O)C1(C)CCN(S(=O)(=O)c2ccc(Br)s2)CC1 | 1050 s
66 | O=c1nc(NCc2ccccc2)c2ccccc2[nH]1 | 620 s

Row | Compound | RP-LC retention time
67 | CCN(CC)S(=O)(=O)c1ccc2c(c1)CC(C(=O)N1CCC(C)CC1)N2C(C)=O (stereo not drawn) | 849 s
68 | CCCN1C(=O)c2cc(S(=O)(=O)NCc3ccccc3)ccc2Oc2cccnc21 | 1050 s
69 | Cc1ccc(NC(=O)Cc2csc3nc(-c4ccccc4)cn23)c(Br)c1 | 872 s
70 | CCOc1cccc(-c2noc(Cn3c(=O)n(CCc4ccccc4)c(=O)c4sccc43)n2)c1 | 660 s
71 | CN1CC(=O)NC(c2ccccc2F)C1=O (stereo not drawn) | 513 s
72 | CCN(C(=O)C1CCCN1S(=O)(=O)c1cc2c(cc1Cl)NC(=O)CO2)c1ccccc1 (stereo not drawn) | 836 s
73 | CCCc1ccc(S(=O)(=O)N2CCC3(CC2)NCCN=C3NCc2ccc(C)cc2)cc1 | 846 s
74 | Cc1ccc(-c2cc3n(n2)CCCN(C(=O)c2cccc(C#N)c2)C3)cc1 | 862 s
75 | Cc1ccc(Cn2c(=O)c3nn(C)cc3n3c(=O)n(Cc4ccc(N5CCCC5=O)cc4)nc23)cc1 | 812 s
76 | COc1ccc(N2CC(c3nnc(NC(=O)COc4ccc(C)cc4)o3)CC2=O)cc1 (stereo not drawn) | 742 s
77 | CC(CCNc1ccc(-c2nc(-c3cccc(F)c3)no2)cn1)N1CCCCCC1 (stereo not drawn) | 782 s
78 | COc1ccc(CC(=O)Nc2ccc3c(c2)Sc2ncccc2C(=O)N3C)c(Cl)c1 | 804 s
79 | COc1ccc(NS(=O)(=O)c2ccc(-c3nnc(C4CCC4)o3)o2)cc1 | 864 s
80 | Cc1ccc(S(=O)(=O)N2CCCC(CCC(=O)NCc3ccccn3)C2)cc1 (stereo not drawn) | 656 s
81 | CC(C)Cn1cc(CCNC(=O)c2ccc(F)cc2F)c2cccnc21 | 834 s
82 | O=C(CN1C(=O)CCC1=O)Nc1ncc(S(=O)(=O)c2ccc([N+](=O)[O-])cc2)s1 | 706 s
83 | CCCNC(=O)N1CCC(c2noc(-c3ccccn3)n2)C1 (stereo not drawn) | 648 s
84 | CC(C)c1ccc(OCC(=O)Nc2nnc(-c3ccc(Br)o3)o2)cc1 | 906 s
85 | COc1ccc(S(=O)(=O)N2CCCC(C(=O)Nc3ccc4c(c3)OCO4)C2)cc1OC (stereo not drawn) | 838 s
86 | Cc1ccc(CNC(=O)C(C)n2c3ccccc3c3cnn(C)c(=O)c32)o1 (stereo not drawn) | 882 s
87 | CCc1nc(-c2csc(S(=O)(=O)N3CCCC(C(=O)N4CCc5ccccc5C4)C3)c2)no1 (stereo not drawn) | 1060 s
88 | CCOC(=O)c1nc(N(C)c2ccccc2C)c2ccccc2n1 | 916 s
